Several values for one entry are separate records, joined by “and”; a condition that tells them apart may be missing. Equal values may be shown once.
Assays:
[1] = human, in vivo
Excerpt: Br. J. Cancer (1987), 56, 479-483 ? The Macmillan Press Ltd., 1987 Pharmacokinetics of ethylenediaminemalonatoplatinum(II) (JM-40) during phase I trial F. Elferink1, W.J.F. van der Vijgh1, W.W. ten Bokkel Huinink2, J.B. Vermorken', I. Klein1, B. Winograd', M.K.T. Knobf', G. Simonetti2, H.E. Gall', J.G. McVie2 & H.M. Pinedo' 1Department of Oncology, Free University Hospital, De Boelelaan 1117, 1081 HV Amsterdam; and 2Netherlands Cancer Institute, Antoni van Leeuwenhoek Hospital, Plesmanlaan 121, 1066 CX Amsterdam, The Netherlands. […] The drug was administered intravenously by short-term (10-60min) infusion. Doses ranged from 20 to 1,200 mgm-2. JM-40 was determined in plasma ultrafiltrate and urine by HPLC. Platinum (Pt) concentrations were determined in plasma, plasma ultrafiltrate, urine and red blood cells by atomic absorption spectrometry up to 5 days after administration of the drug. Ultrafilterable Pt could be determined up to 45 days after the infusion in one patient sampled over such a long period. […] During the first 6h 27+9% of the administered dose was excreted as JM-40. Cumulative platinum excretion in the urine amounted to 29+ 13%, 42+ 14% and 60+13% over the first 6h, 24h and 5 days, respectively. The uptake of platinum in red blood cells was limited, comprising only 0.24+0.12% of the administered dose. […] In particular the low emetogenic potential as determined in the ferret (Schurig et al., 1984) and the limited nephrotoxicity observed in dogs (Lelieveld et al., 1984) were reasons to conduct a phase I trial. […] Investigation of the pharmacokinetics during phase I clinical trials is important because it may help to design an optimal therapeutic regimen in phase II trials (Kovach, 1983). In the case of an analogue, pharmacokinetics can be compared with that of the parent compound. Furthermore, when preclinical information on animal pharmacokinetics is available human pharmacokinetics at low doses of the phase I trial may aid in escalating the dose as quickly and safely as possible (Collins et al., 1986, Van Hennik et al. 1987). Thus, clinical pharmacokinetics of JM-40 and platinum were investigated in plasma, plasma ultrafiltrate, urine and red blood cells. Figure 1 Structural platinum(II) (JM-40). formula of ethylenediaminemalonato- Patients and methods Patients and materials Pharmacokinetic studies were performed in 19 patients who received 28 cycles of JM-40 within a dose range of 20- 1,200mgm-2. The median age of the patients (6 females, 13 males) was 57 yrs (range 37-74 yrs). […] Renal function was decreased (creatinine clearance <60mlmin-1) at the start of only 3 treatment cycles. […] JM-40 was supplied by Johnson Matthey, Reading, Berkshire, UK. […]

plasma proteins = test system: plasma proteins; set-up: method as in Van der Vijgh et al., 1986; conditions: ref Van der Vijgh et al., 1986; cited from earlier work
[2] = set-up: method as in Schurig et al., 1984; conditions: ferret, preclinical; ref Schurig et al., 1984; cited from earlier work
[3] = set-up: method as in Lelieveld et al., 1984; conditions: dogs, preclinical; ref Lelieveld et al., 1984; cited from earlier work
[4] = cited from earlier work
[5] = after cis-platin, ref Vermorken et al., cited from earlier work

With “ethylenediaminemalonatoplatinum(II) [JM-40]” the “cumulative urinary excretion after 24 h, as Pt” value [1] was 42+14%, the “dose m-2 vs AUC relation” value [1] was “linear pharmacokinetics” and the “half-life of Pt in RBCs over day 1-5” value [1] was 14 + 3 days. For the same compound, the “time of maximum Pt levels in RBCs after start of infusion” value [1] was 2 to 8 h, the “in vitro rate constant of plasma protein binding (k in vitro of free Pt)” value (plasma proteins) was 0.002 min⁻¹ and 0.0020 min⁻¹ and the emetogenic potential [2] was “low”. For the same compound, the nephrotoxicity [3] was “limited” and the maximum tolerable dose ([4]; in vivo) was 1,200 mg m-2.
For `N.N.[Cl][Pt][Cl]` [cis-platin, cis-diammine-dichloroplatinum(II)], the “CUE 0-6h of free Pt” value ([5]; 1984b) is given as 24+5 %D and the “CUE 0-24h of free Pt” value [5]; 1986 is given as 28+4 %D.
For `N.N.O=C([O-])C1(C(=O)[O-])CCC1.[Pt+2]` [carboplatin, diammine( 1, l-cyclobutanedicarboxylato)platinum(II), reference compound], the dose limiting toxicity ([4]; ref Joss et al., 1984) is given as “myelotoxicity”.
